Reference: US8394954B2, “Benzophenone hybrids as anticancer agents and processes for the preparation thereof” (Council of Scientific & Industrial Research, priority 2007, dated 2013)

Legend:
[1] = tested on: ovarian cancer OVCAR-5 cell line; experiment: NCI in vitro anticancer screen, OVCAR-5; type: cell-based; conditions: Homo sapiens
Method: (§1) Compounds described herein were evaluated for in vitro anticancer activity. Particularly the 6a, 6b, 6d, 6h, 8a and 8b compounds were evaluated for in vitro anticancer activity against sixty human tumor cells derived from nine cancer types (leukemia, non-small-cell lung, colon, […], ovarian, prostate, and breast cancer) as shown in (Table 2 and 3). For the compound, dose response curves for each cell line were measured at a minimum of five concentrations at 10 fold dilutions. A protocol of 48 h continuous drug exposure was used and a sulforhodamine B (SRB) protein assay was used to estimate cell viability or growth. The concentration causing 50% cell growth inhibition (GI50), total cell growth inhibition (TGI 0% growth) and 50% cell death (LC50, −50% growth) compared with the control was calculated.
(§2) In the non-small cell lung cancer panel, the growth of HOP-62, […] were affected by compound 6d with G150 values as 11.7, 13.9 and 17.2 nM respectively. […] In vitro cytotoxicity of compounds 6d, 8a, and 8b in selected cancer cell lines has been illustrated in Table 3. The average G150 values for each cancer panel of compounds 6a, 6b, 6d, 6e, 8a and 8b have been illustrated in Table 2.

[2] = tested on: Colon cancer cell lines; experiment: NCI in vitro anticancer screen, colon panel; type: cell-based, human; conditions: Homo sapiens, average of six to nine cell lines, read-out: Log GI50 (concentration in mol/L causing 50% growth inhibition) (converted)
Method: as §1

[3] = tested on: colon cancer KM12 cell line; experiment: NCI in vitro anticancer screen, KM12; type: cell-based; conditions: Homo sapiens
Method: as §1, §2

[4] = tested on: duplex-form calf thymus DNA (CT-DNA); experiment: Thermal denaturation studies with CT-DNA; type: binding; conditions: [BPD]:[DNA] molar ratio 1:5, CT-DNA 100 μM, ligand 20 μM, pH 7.00
Method: Compounds were subjected to thermal denaturation studies with duplex-form calf thymus DNA (CT-DNA). Working solutions in aqueous buffer (10 mM NaH2PO4/Na2HPO4, 1 mM Na2EDTA, pH 7.00+0.01) containing CT-DNA (100 μm in phosphate) and the BPD (20 μm) were prepared by addition of concentrated BPD solutions in DMSO to obtain a fixed [BPD]/[DNA] molar ratio of 1:5. The DNA-BPD solutions were incubated at 37° C. for 0, 18, and 36 h prior to analysis. Samples were monitored at 260 nm using a Beckman DU-7400 spectrophotometer fitted with high performance temperature controller, and heating was applied at 1° C. min-1 in the 40-90° C. range. DNA helix coil transition temperatures (Tm) were obtained from the maxima in the (dA260)/dT derivative plots. Results are given as the mean±standard deviation from three determinations and are corrected for the effects of DMSO co-solvent using a linear correction term. Drug-induced alterations in DNA melting behavior are given by: ΔTm=Tm(DNA+BPD)−Tm(DNA alone), where the Tm value for the BPD-free CT-DNA is 69.0±0.01.

[5] = tested on: renal and breast cancer panels; experiment: NCI in vitro anticancer screen, renal and breast panels; type: cell-based; conditions: Homo sapiens; range over renal and breast cancer panels
Method: as §1, §2

[6] = tested on: colon cancer HCT-116 cell line; experiment: NCI in vitro anticancer screen, HCT-116; type: cell-based; conditions: Homo sapiens
Method: as §1, §2

[7] = tested on: ovarian cancer OVCAR-4 cell line; experiment: NCI in vitro anticancer screen, OVCAR-4; type: cell-based; conditions: Homo sapiens
Method: as §1, §2

[8] = tested on: Leukemia cancer cell lines; experiment: NCI in vitro anticancer screen, leukemia panel; type: cell-based, human; conditions: Homo sapiens, average of six to nine cell lines, read-out: Log GI50 (concentration in mol/L causing 50% growth inhibition) (converted)
Method: as §1

[9] = tested on: colon cancer HCC-2988 cell line; experiment: NCI in vitro anticancer screen, HCC-2988; type: cell-based; conditions: Homo sapiens
Method: as §1, §2

[10] = tested on: ovarian cancer SK-OV-3 cell line; experiment: NCI in vitro anticancer screen, SK-OV-3; type: cell-based; conditions: Homo sapiens
Method: as §1, §2

[11] = tested on: ovarian cancer OVCAR-8 cell line; experiment: NCI in vitro anticancer screen, OVCAR-8; type: cell-based; conditions: Homo sapiens
Method: as §1, §2

[12] = tested on: CNS SF-295, SF-539, SNB-19 and SNB-75 cell lines; experiment: NCI in vitro anticancer screen, CNS lines; type: cell-based; conditions: Homo sapiens; range over SF-295, SF-539, SNB-19 and SNB-75
Method: as §1, §2

[13] = tested on: Ovarian cancer cell lines; experiment: NCI in vitro anticancer screen, ovarian panel; type: cell-based, human; conditions: Homo sapiens, average of six to nine cell lines, read-out: Log GI50 (concentration in mol/L causing 50% growth inhibition) (converted)
Method: as §1

[14] = tested on: sixty human tumor cells derived from nine cancer types; experiment: NCI in vitro anticancer screen, 48 h exposure, SRB assay, mean over all lines; type: cell-based
Method: as §1

[15] = tested on: CNS cancer cell lines; experiment: NCI in vitro anticancer screen, CNS panel; type: cell-based, human; conditions: Homo sapiens, average of six to nine cell lines, read-out: Log GI50 (concentration in mol/L causing 50% growth inhibition) (converted)
Method: as §1

[16] = tested on: Prostate cancer cell lines; experiment: NCI in vitro anticancer screen, prostate panel; type: cell-based, human; conditions: Homo sapiens, average of six to nine cell lines, read-out: Log GI50 (concentration in mol/L causing 50% growth inhibition) (converted)
Method: as §1

[17] = tested on: Breast cancer cell lines; experiment: NCI in vitro anticancer screen, breast panel; type: cell-based, human; conditions: Homo sapiens, average of six to nine cell lines, read-out: Log GI50 (concentration in mol/L causing 50% growth inhibition) (converted)
Method: as §1

[18] = tested on: HOP-62, NCI-H23 cell lines; experiment: NCI in vitro anticancer screen, non-small cell lung lines; type: cell-based; conditions: Homo sapiens, non-small cell lung cancer panel
Method: as §1, §2

[19] = tested on: Nonsmall-cell-lung cancer cell lines; experiment: NCI in vitro anticancer screen, non-small-cell lung panel; type: cell-based, human; conditions: Homo sapiens, average of six to nine cell lines, read-out: Log GI50 (concentration in mol/L causing 50% growth inhibition) (converted)
Method: as §1

[20] = tested on: Melanoma cancer cell lines; experiment: NCI in vitro anticancer screen, melanoma panel; type: cell-based, human; conditions: Homo sapiens, average of six to nine cell lines, read-out: Log GI50 (concentration in mol/L causing 50% growth inhibition) (converted)
Method: as §1

[21] = tested on: human cancer cell lines of colon (Colo205), lung (Hop-62), cervix (SiHa), prostate (DU145, PC3), oral (DWD, HT1080), and breast (MCF7, Zr-75-1) origin; experiment: In vitro evaluation of cytotoxic activity in selected human cancer cell lines, 48 h exposure; type: cell-based; conditions: 48 h continuous drug exposure
Method: In vitro evaluation of cytotoxic activity. Compounds 6a, 6b, 6d, 6e, 8a and 8b were evaluated for in vitro anticancer activity against nine human tumor cells derived from six cancer types (colon, prostate, oral, lung, cervix and breast cancer) as shown in Table 2. […] Compounds 6a, 6b, 6d, 6e, 8a and 8b have been evaluated for their in vitro cytotoxicity in selected human cancer cell lines of colon (Colo205), lung (Hop-62), cervix (SiHa), prostate (DU145, PC3), oral (DWD, HT1080), and breast (MCF7, Zr-75-1) origin. A protocol of 48 h continuous drug exposure has been used and an […] has been used to estimate cell viability or growth. The results are expressed as percent of cell growth determined relative to that of untreated control cells

[22] = tested on: Renal cancer cell lines; experiment: NCI in vitro anticancer screen, renal panel; type: cell-based, human; conditions: Homo sapiens, average of six to nine cell lines, read-out: Log GI50 (concentration in mol/L causing 50% growth inhibition) (converted)
Method: as §1

## O=C(CN1CCN(c2ncnc3ccccc23)CC1)Nc1ccc(Cl)cc1C(=O)c1ccccc1Cl [Compound 6d, N1-4-chloro-2-(2-chlorobenzoyl)phenylJ-2-[4-(4-quinazolinyl)piperazino]acetamide]
[1]
  GI50: 0.0149 µM
[2]
  GI50: 0.229 µM
[3]
  GI50: 0.0114 µM
[4]; 0 h
  ΔTm after incubation at 37° C. for 0 h: 1.5 °C
[4]; 18 h
  ΔTm after incubation at 37° C. for 18 h: 1.9 °C
[4]; 36 h
  ΔTm after incubation at 37° C. for 36 h: 2.7 °C
[5]
  GI50: 0.0116 to 0.0434 µM
[6]
  GI50: 0.0112 µM
[7]
  GI50: 0.0306 µM
[8]
  GI50: 0.151 µM
[9]
  GI50: 0.0116 µM
[10]
  GI50: 0.0786 µM
[11]
  GI50: 0.0305 µM
[12]
  GI50: 0.0116 to 0.0242 µM
[13]
  GI50: 0.219 µM
[14]; Homo sapiens, wide spectrum of activity against sixty cell lines in nine cell panels
  GI50: < 20 µM
[14]; human tumor cell lines, 48 h exposure, 50% cell death
  Log10LC50 mean graph midpoint (MG_MID): −4.62
[14]; human tumor cell lines, 48 h exposure, 50% cell growth inhibition
  Log10GI50 mean graph midpoint (MG_MID): −6.82
[14]; human tumor cell lines, 48 h exposure, total cell growth inhibition
  Log10TGI mean graph midpoint (MG_MID): −6.56
[15]
  GI50: 0.224 µM
[16]
  GI50: 0.398 µM
[17]
  GI50: 0.178 µM
[18]
  GI50: 0.0117 µM
[19]
  GI50: 0.389 µM
[20]
  GI50: 0.204 µM
[21]
  cytotoxicity against some cancer cell lines: promising cytotoxicity
[22]
  GI50: 0.214 µM
